Data taken from patent publication US20200085828A1, “PHOSPHODIESTERASE INHIBITORS AND METHODS OF MICROBIAL TREATMENT” (Mavupharma, Inc., priority 2016, published 2020).

Assays:
[1] = system: cGAMP activated THP-1 cells; experiment: PDE inhibitor library screen on cGAMP activated THP-1 cells, IFNβ ELISA; format: cell-based, human; settings: 10 μM compound, suboptimal 2′,3′-cGAMP, 24 hours
Procedure: THP-1 Cell Activation and Screening of Test Compounds: • (a) THP-1 cells from bulk cultures were counted and suspended in RPMI 1640, 20% FBS, 2.5 mM L-alanyl-L-glutamine at a concentration of 5.5×10^6 cells/mL. The THP-1 cells were subsequently seeded into 96 well round bottom plates—volume of 180 μL/well (1×10^6 cells per well), and the plate was incubated for 1 hour at 37° C., 5% CO2. • (b) Test compounds comprising known phosphodiesterase inhibitors (PDEs), were screened in triplicate (N1, N2, N3) on THP-1 cells. For compound screening, test compounds were assayed at a final concentration of 10 μM. A 200 μM (0.2 mM) working solution of each compound was prepared by diluting 10 mM DMSO stock solutions of each compound in media at a dilution of 50:1 (1640, 20% FBS, 2.5 mM L-alanyl-L-glutamine). […]
(i) Cell culture supernatants were harvested by centrifuging the plates at 200×g for 10 minutes. Cell culture supernatants were then transferred to a clean plate and stored at −80° C. until ready to analyze for IFNβ levels. • (j) IFNβ levels in cell culture supernatants were determined by ELISA according to the manufacturer's instructions (VeriKine Human IFNβ Assay). • (k) The interpolated data was normalized to vehicle control, or unstimulated control, and analyzed.

human recombinant ENPP1 [2] = target: T1, human recombinant ENPP1 (Homo sapiens, UniProt P22413); experiment: ENPP1 inhibition with 2′,3′-cGAMP substrate (AMP-Glo assay); format: biochemical; settings: for Ki: 20 μM 2′3′cGAMP, Ki from IC50 by Cheng-Prusoff, Km 15 μM; for inhibition at 1 µM: at 1 μM compound; for inhibition at 1 µM / inhibition at 10 µM: read-out: Inhibition of ENPP1 with cGAMP as the Substrate; for inhibition at 10 µM: at 10 μM compound
T1 sequence (P22413 1-925): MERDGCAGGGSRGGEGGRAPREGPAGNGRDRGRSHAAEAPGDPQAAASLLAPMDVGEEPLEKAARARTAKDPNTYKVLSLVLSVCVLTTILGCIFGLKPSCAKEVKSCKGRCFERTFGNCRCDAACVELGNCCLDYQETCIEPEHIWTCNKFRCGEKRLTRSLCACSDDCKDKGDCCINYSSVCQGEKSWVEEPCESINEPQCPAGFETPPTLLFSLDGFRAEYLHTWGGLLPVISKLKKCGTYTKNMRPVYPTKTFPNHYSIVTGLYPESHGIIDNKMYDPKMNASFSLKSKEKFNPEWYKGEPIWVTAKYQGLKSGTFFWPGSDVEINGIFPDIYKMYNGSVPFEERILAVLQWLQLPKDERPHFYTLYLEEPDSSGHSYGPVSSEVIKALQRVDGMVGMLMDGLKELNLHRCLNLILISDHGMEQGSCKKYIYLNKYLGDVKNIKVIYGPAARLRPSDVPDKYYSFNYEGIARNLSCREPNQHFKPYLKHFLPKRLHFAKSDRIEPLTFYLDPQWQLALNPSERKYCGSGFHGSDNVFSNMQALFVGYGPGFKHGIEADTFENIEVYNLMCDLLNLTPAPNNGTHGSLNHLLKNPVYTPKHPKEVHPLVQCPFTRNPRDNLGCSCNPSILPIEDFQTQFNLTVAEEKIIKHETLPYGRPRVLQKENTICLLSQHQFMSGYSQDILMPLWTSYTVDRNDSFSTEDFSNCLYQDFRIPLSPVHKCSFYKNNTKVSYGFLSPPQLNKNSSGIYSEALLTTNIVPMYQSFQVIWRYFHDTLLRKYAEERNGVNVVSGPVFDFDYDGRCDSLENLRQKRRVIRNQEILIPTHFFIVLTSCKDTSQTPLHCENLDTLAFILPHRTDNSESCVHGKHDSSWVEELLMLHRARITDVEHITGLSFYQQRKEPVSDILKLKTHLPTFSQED
Procedure: The AMP-Glo™ Assay Kit contains two reagents that are added sequentially. The first converts the 5′-AMP produced in the reaction to 5′ADP. The second converts the 5′-ADP to 5′ATP and reacts the 5′-ATP with the luciferase/luciferin pair to produce the luminescence signal. […] Inhibitors are added at final concentrations ranging between 10 μM and 30 pM depending on the compound. Duplicate wells are run at each inhibitor concentration. The final assay volume is 18 μL and human recombinant ENPP1 is present at 5 ng/well. The assay is initiated by the addition of substrate (20 μM 2′3′cGAMP final concentration), and incubated for 30 minutes at 37° C. To stop the reaction, 12 μl of AMP-Glo reagent I is added and the plate is incubated for 60 minutes at room temperature. 25 μl of AMP-detection reagent is then added and the wells are again incubated for 60 minutes at room temperature. The luminescence signal is then measured using a plate-reading luminometer. Each assay plate also includes wells with no enzyme added (MIN OD) and wells with no inhibitor added (MAX OD). The percent inhibition of ENPP1 for each sample is then calculated as: […]
IC50 values of compounds were calculated by entering the percent inhibition values into a sigmoidal variable slope nonlinear regression model in GraphPad Prism® software. IC50 values were converted to Ki values using the Cheng-Prusoff equation2 where the Km was 15 μM, based on internal determinations.

human recombinant ENPP1 [3] = target: T1, human recombinant ENPP1; experiment: ENPP1 inhibition with AMP-pNP (ATP analog) substrate, absorbance at 405 nm; format: biochemical; settings: 300 μM AMP-pNP; Ki from IC50 by Cheng-Prusoff, Km 151 μM
Procedure: The ENPP1 assay with AMP-pNP substrate is conducted in a buffer containing 50 mM Tris-HCl (pH 8.5)/250 mM NaCl/0.5 mM CaCl2/1 μM ZnCl2/0.1% DMSO. Inhibitors are added at final concentrations ranging between 10 μM and 30 pM depending on the compound. Duplicate wells are run at each inhibitor concentration. The final assay volume is 40 μL and human recombinant ENPP1 is present at 60 ng/well. The assay is initiated by the addition of substrate (300 μM AMP-pNP final concentration), and incubated for 20 minutes at 37° C. […] Each assay plate also includes wells with no enzyme added (MIN OD) and wells with no inhibitor added (MAX OD). The percent inhibition of ENPP1 for each sample is then calculated as: […]
IC50 values of compounds were calculated by entering the percent inhibition values into a sigmoidal variable slope nonlinear regression model in GraphPad Prism® software.

Row | SMILES | Ki (human recombinant ENPP1 [2]) [nM] | Substrate Selectivity Ki Ratio AMP-pNP/2′3′cGAMP (human recombinant ENPP1 [2]; Ki (AMP-pNP)/Ki (2′3′-cGAMP)) | other results
1 | O=c1cc(-c2ccc(O)c(O)c2)oc2cc(O)cc(O)c12 [Compound 1] |  |  | augmentation of cGAMP mediated IFNβ production [1]: augmentation of cGAMP mediated IFNβ production
2 | COc1cc2ncnc(N3CCC(CCN)CC3)c2cc1OC [Compound 5] | 46.7 |  | 
3 | COc1cc2nccc(Nc3ccc(NS(=O)(=O)c4ccccc4)cc3)c2cc1OC [Compound 14] | 29.1 |  | Ki (human recombinant ENPP1 [3]): 1830 nM
4 | CCN(C)S(=O)(=O)NCCC1CCN(c2ncnc3cc(OC)c(OC)cc23)CC1 [Compound 12] | 336 |  | 
5 | COc1ccc(NC(=O)CSc2nc3c(N)ncnc3[nH]2)cc1OC [Compound 2] |  |  | inhibition at 1 µM (human recombinant ENPP1 [2]): 99%; inhibition at 10 µM (human recombinant ENPP1 [2]): 99%
6 | COc1cc2nc(-c3cccnc3)nc(N3CCC(CCNS(C)(=O)=O)CC3)c2cc1OC [Compound 23] |  | >23.9 | 
7 | COc1ccc(CC(=O)CCC2=Nc3c(N)ccnc3C2)cc1OC [Compound 4] |  | >37500 | selectivity for inhibition of cGAMP over AMP-pNP hydrolysis by ENPP1 (human recombinant ENPP1 [2]; Ki (AMP-pNP)/Ki (2′3′-cGAMP)): > 37,500 fold
8 | COc1cc2ncnc(N3CCC(CCNS(N)(=O)=O)CC3)c2cc1OC [Compound 3] |  |  | inhibition at 1 µM (human recombinant ENPP1 [2]): 99%; inhibition at 10 µM (human recombinant ENPP1 [2]): 99%; augmentation of cGAMP mediated IFNβ production [1]: augmentation of cGAMP mediated IFNβ production
9 | COc1cc2ncnc(N3CCC4(CC3)CN(S(N)(=O)=O)C4)c2cc1OC [Compound 24] |  | 18.7 | 
10 | Cn1cnc2cccc(N3CCC(CCCS(C)(=O)=O)CC3)c21 [Compound 9] |  | >128 | 

Continued, in another order:

Row | Ki (human recombinant ENPP1 [2]) [nM] | Substrate Selectivity Ki Ratio AMP-pNP/2′3′cGAMP (human recombinant ENPP1 [2]; Ki (AMP-pNP)/Ki (2′3′-cGAMP)) | SMILES | other results
11 | 27.1 |  | COc1cc2ncn(-c3ccc(CNS(N)(=O)=O)cc3)c2cc1OC [Compound 16] | Ki (human recombinant ENPP1 [3]): 1460 nM
12 |  | >325 | COc1cc2nccc(Oc3ccc(CS(N)(=O)=O)cc3)c2cc1OC [Compound 6] | 
13 | 1.8 |  | COc1cc2ncnc(-c3ccc4c(c3)CN(S(N)(=O)=O)CC4)c2cc1OC [Compound 21] | Ki (human recombinant ENPP1 [3]): 65.2 nM
14 | 44 |  | COc1cc2nccc(Oc3ccc(NS(=O)(=O)c4ccccc4)cc3)c2cc1OC [Compound 25] | 
